This is an account of results in paper PMC6920847, “2-Hydroxy-N-phenylbenzamides and Their Esters Inhibit Acetylcholinesterase and Butyrylcholinesterase” (Biomolecules, 2019).

Values joined by “and” are separate entries in the source; they are usually repeats but may differ in a detail not shown here. Equal entries are not always repeated. “Also recorded” adds a separate entry of the source. Where two headings read alike, the source gives them in different places.

Experiment [1] concerns the target T1, AChE from electric eel (EeAChE) (Electrophorus electricus, UniProt O42275).
T1 construct: Acetylcholinesterase was obtained from electric eel (Electrophorus electricus L.); purchased Sigma-Aldrich (Prague, Czech Republic); host or cells: electric eel (natural source)
Description: Inhibition of AChE, modified Ellman's spectrophotometric method. It counts as biochemical, electric eel (Electrophorus electricus L.). Here is the method: (§1) The IC50 values were determined using the spectrophotometric Ellman’s method modified according to Zdražilová et al., which is a simple, rapid and direct method to determine the SH and -S-S- group content in proteins. This method is widely used for the screening of the efficiency of cholinesterases inhibitors. The enzymatic activity is measured indirectly by quantifying the concentration of the 5-thio-2-nitrobenzoic acid ion formed in the reaction between the thiol reagent 5,5′-dithio-bis(2-nitrobenzoic acid) and thiocholine, a product of substrate hydrolysis (i.e., acetylthiocholine; ATCH) by cholinesterases.
(§2) The enzyme activity in final reaction mixture (2000 µL) was 0.2 U/mL, concentration of acetylthiocholine (or butyrylthiocholine, BTCH) 40 µM and concentration of 5,5′-dithio-bis(2-nitrobenzoic acid) 0.1 mM for all reactions. The tested compounds were dissolved in DMSO and then diluted in demineralized water to the concentration of 1 µM. […] All measurements were carried in triplicate and the average values of reaction rate (v0-uninhibited reaction, vi-inhibited reaction) were used for construction of the dependence v0/vi vs. concentration of inhibitor. From obtained equation of regression curve, the value of IC50 was calculated (based on the definition of IC50).
(§3) Acetylcholinesterase was obtained from electric eel (Electrophorus electricus L.) and butyrylcholinesterase was from an equine serum.
(§4) Thirty-six benzamides 1–4l were evaluated as potential inhibitors of AChE from electric eel (EeAChE) and BuChE from equine serum (EqBuChE) using Ellman’s spectrophotometric method modified according to Zdražilová et al.. Their efficacy is expressed as IC50, i.e., the concentration required for 50% inhibition of the enzymatic activity. Based on inhibition of both cholinesterases, we calculated selectivity indexes (SI) as the ratio of IC50 value for AChE/IC50 value for BuChE to express the selectivity quantitatively (Table 1).
On the technique in general: In Ellman's method for cholinesterases, released thiocholine reacts with DTNB.

Experiment [2] concerns the target T1, AChE from electric eel (EeAChE). Conditions: SI = IC50 for AChE/IC50 for BuChE; cited from earlier work.
Experiment [3] concerns the target T2, BuChE from equine serum (EqBuChE) (Equus caballus, UniProt P81908).
T2 construct: butyrylcholinesterase was from an equine serum; purchased Sigma-Aldrich (Prague, Czech Republic); host or cells: equine serum (natural source)
Description: Inhibition of BuChE, modified Ellman's spectrophotometric method. The experiment is classed as biochemical. Conditions: for Enhancement of BuChE inhibition compared to parent 3k: ratio of IC50 values vs parent 3k. On the procedure: as §1, §2, §3, §4

Experiment [4] has as its target T2, BuChE from equine serum (EqBuChE). The settings on record: mean ± SD; cited from earlier work.
In experiment [5] the target is T3, BuChE (Equus caballus, UniProt P81908).
T3 construct: butyrylcholinesterase was from an equine serum; purchased Sigma-Aldrich (Prague, Czech Republic); host or cells: equine serum (natural source)
T3 sequence (P81908 whole entry): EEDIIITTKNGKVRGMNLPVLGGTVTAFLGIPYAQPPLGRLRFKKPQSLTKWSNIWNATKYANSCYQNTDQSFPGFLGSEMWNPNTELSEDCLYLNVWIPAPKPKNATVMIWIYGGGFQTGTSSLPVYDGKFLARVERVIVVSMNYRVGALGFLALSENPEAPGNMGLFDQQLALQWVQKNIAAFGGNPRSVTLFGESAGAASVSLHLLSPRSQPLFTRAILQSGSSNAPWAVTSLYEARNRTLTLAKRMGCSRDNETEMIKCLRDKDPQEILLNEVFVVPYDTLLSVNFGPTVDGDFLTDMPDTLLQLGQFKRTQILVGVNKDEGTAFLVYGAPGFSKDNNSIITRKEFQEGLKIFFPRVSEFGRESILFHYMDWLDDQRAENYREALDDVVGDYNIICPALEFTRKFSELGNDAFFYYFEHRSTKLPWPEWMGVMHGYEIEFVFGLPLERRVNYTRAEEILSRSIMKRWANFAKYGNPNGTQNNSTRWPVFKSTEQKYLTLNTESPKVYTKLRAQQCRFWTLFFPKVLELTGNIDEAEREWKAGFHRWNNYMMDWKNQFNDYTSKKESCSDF
Kind of experiment: Type of inhibition, Lineweaver-Burk plot. The experiment is classed as biochemical, equine. The settings on record: BTCH 20–80 µM. Here is the method:
(§5) For the determination of the type of inhibition Lineweaver-Burk plot was used and the measuring procedure was similar to that for the determination of IC50 (modified Ellman’s method was used). The enzyme activity in the final reaction mixture (2000 µL) was 0.2 U/mL, a concentration of ATCH or BTCH 20–80 µM and a concentration of 5,5′-dithio-bis(2-nitrobenzoic acid) 0.1 mM. For each of the substrate concentrations, four different concentrations of inhibitor were chosen. The dependence absorbance vs. time was observed and the reaction rate was calculated. All measurements were carried in duplicate and the average values of reaction rate were used for the construction of the Lineweaver-Burk plot. From obtained equations of regression curves, the values of KM (Michaelis constant) and Vm (maximum velocity) were calculated and the type of inhibition was evaluated.
(§6) The type of inhibition could be distinguished based on the Lineweaver-Burk plot and the comparison of the kinetic parameters KM and Vm of uninhibited and inhibited reactions. The diagnostic criterion for competitive inhibition is that Vm is unaffected by inhibitor and KM for inhibited reaction is increased. All lines in Lineweaver-Burk plot share a common y-intercept. For non-competitive inhibitor KM is unchanged, but Vm of inhibited reaction is decreased. All lines in Lineweaver-Burk plot share a common x-intercept. […]

In experiment [6] the target is T4, AChE (Electrophorus electricus, UniProt O42275).
T4 construct: Acetylcholinesterase was obtained from electric eel (Electrophorus electricus L.); purchased Sigma-Aldrich (Prague, Czech Republic); host or cells: electric eel (natural source)
T4 sequence (O42275 24-633): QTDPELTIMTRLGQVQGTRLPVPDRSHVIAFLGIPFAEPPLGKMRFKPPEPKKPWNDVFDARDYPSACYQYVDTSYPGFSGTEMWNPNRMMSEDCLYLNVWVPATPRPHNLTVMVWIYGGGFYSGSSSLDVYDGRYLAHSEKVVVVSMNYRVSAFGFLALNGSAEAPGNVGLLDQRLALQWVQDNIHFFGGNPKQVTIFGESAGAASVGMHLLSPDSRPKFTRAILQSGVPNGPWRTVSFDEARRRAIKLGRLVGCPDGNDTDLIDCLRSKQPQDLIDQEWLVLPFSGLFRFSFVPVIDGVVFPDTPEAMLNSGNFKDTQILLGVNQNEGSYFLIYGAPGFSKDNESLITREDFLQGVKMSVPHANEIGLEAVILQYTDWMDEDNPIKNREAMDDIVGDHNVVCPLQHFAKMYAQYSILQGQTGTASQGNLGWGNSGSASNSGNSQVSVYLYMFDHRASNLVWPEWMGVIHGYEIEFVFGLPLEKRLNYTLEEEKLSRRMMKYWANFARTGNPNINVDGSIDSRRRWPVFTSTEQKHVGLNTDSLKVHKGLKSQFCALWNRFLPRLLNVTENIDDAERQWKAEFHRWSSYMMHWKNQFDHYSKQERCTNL
Description: Type of inhibition, Lineweaver-Burk plot. It counts as biochemical, electric eel (Electrophorus electricus L.). Conditions: ATCH 20–80 µM. Here is the method: as §5, §6

For experiment [7], the target named is T5, butyrylcholinesterase (Equus caballus, UniProt P81908).
T5 construct: butyrylcholinesterase was from an equine serum; purchased Sigma-Aldrich (Prague, Czech Republic); host or cells: equine serum (natural source)
T5 sequence (P81908 whole entry): as the sequence (P81908 whole entry) above
Kind of experiment: Mechanism of inhibition, dependence log% A vs. time. Conditions: inhibitor 3, 6, 9 µM; prolonged incubation. It counts as biochemical, equine. On the procedure:
(§7) The determination of mechanism of enzyme inhibition was described in detail previously. The inhibitor 5c was evaluated at three different concentrations for each enzyme.
(§8) Based on the changes of enzyme activity in the presence of tested inhibitor during prolonged incubation, it is possible to distinguish reversible, pseudo-irreversible and irreversible inhibition. In the case of reversible inhibition, the inhibitor is bound to the enzyme for a short period of time, the activity of the enzyme goes down immediately and, after dissociation of complex enzyme-inhibitor, the enzyme activity is restored. […] For irreversible inhibition, covalent and permanent bond between enzyme and inhibitor is typical and therefore the enzyme becomes inactivated. Irreversible inhibitor decreases enzyme activity successively and the dependence log% A vs. time in the presence of inhibitor is linear.
(§9) The procedure of measurement and data evaluation were in detail described previously in the reference. From the dependence log% A vs. time the mechanism of action of tested inhibitor can be deduced.
Figure 2 The dependence log% A vs. time. Enzyme: butyrylcholinesterase, derivative 5c, concentration of inhibitor: 3 µM (rhomb), 6 µM (square), 9 µM (triangle).

The target in experiment [8] is T6, acetylcholinesterase (Electrophorus electricus, UniProt O42275).
T6 construct: Acetylcholinesterase was obtained from electric eel (Electrophorus electricus L.); purchased Sigma-Aldrich (Prague, Czech Republic); host or cells: electric eel (natural source)
T6 sequence (O42275 24-633): as the sequence (O42275 24-633) above
The description is as above. It counts as biochemical, electric eel (Electrophorus electricus L.). The settings on record: inhibitor 10, 30, 90 µM; prolonged incubation. On the procedure: as §7, §8, §9
Figure 1 The dependence log% A vs. time. Enzyme: acetylcholinesterase, derivative 5c, concentration of inhibitor: 10 µM (rhomb), 30 µM (square), 90 µM (triangle).

T2 sequence (P81908 whole entry): as the sequence (P81908 whole entry) above
T1 sequence (O42275 24-633): as the sequence (O42275 24-633) above

Regarding `CCOP(=S)(OCC)Oc1cc(Cl)ccc1C(=O)Nc1ccc(C(F)(F)F)cc1` [Compound 5b], the “Enhancement of AChE inhibition compared to parent 3k” value in experiment [1] (ratio of IC50 values vs parent 3k) was found to be 6.6 times. For the same molecule, in experiment [2], the “Selectivity AChE/BuChE” value is 0.50. Further, in experiment [3], the “Enhancement of BuChE inhibition compared to parent 3k” value is on record as “up to 20.3 times”.
As a reminder, the IC50 is the concentration that inhibits the measured activity by half. Consider `CCOP(=O)(OCC)Oc1cc(Cl)ccc1C(=O)Nc1ccc(C(F)(F)F)cc1` [Compound 5a], for which the “Selectivity AChE/BuChE” value in experiment [2] is reported as 8.77. The IC50 in experiment [4] was 9.84 ± 0.06 µM. Further, the “Enhancement of BuChE inhibition compared to parent 3k” value in experiment [3] is recorded as “up to 20.3 times”.
`CCOP(OCC)Oc1cc(Cl)ccc1C(=O)Nc1ccc(C(F)(F)F)cc1` [Compound 5c, 5-Chloro-2-{[4-(trifluoromethyl)phenyl]carbamoyl}phenyl diethyl phosphite]: the “Selectivity AChE/BuChE” value in experiment [1] (SI = IC50 for AChE/IC50 for BuChE, SI lower than 1 means selectivity for AChE) is 28.00. For the same molecule, the 50% inhibitory concentration (IC50) in experiment [1] (mean ± SD, n = three experiments, read-out: IC50 (EeAChE)) is 66.4 ± 1.14 µM; in experiment [3] (mean ± SD, n = three experiments, read-out: IC50 (EqBuChE)) it was 2.4 µM and 2.37 µM. The “Type of inhibition (BuChE)” value in experiment [5] was “mixed inhibition; also recorded: mixed inhibitory mechanism”. The “Type of inhibition (AChE)” value in experiment [6] is “mixed inhibition; also recorded: mixed inhibitory mechanism”. The “Mechanism of inhibition (BuChE)” value in experiment [7] is reported as “pseudo-irreversible inhibitor; also recorded: pseudo-irreversible inhibition”. Besides, in experiment [3] (phosphite 5c vs phosphate 5a), the “Improvement of activity against BuChE compared to phosphate 5a” value worked out at 4.2 times. Moreover, the “Enhancement of BuChE inhibition compared to parent 3k” value in experiment [3] is 84.2 times. Further, the “Mechanism of inhibition (AChE)” value in experiment [8] is on record as “pseudo-irreversible inhibitor; also recorded: pseudo-irreversible inhibition”.
